Test results taken from patent publication US12377092B2, “Polycomb inhibitors and uses thereof” (FONDAZIONE ISTITUTO FIRC DI ONCOLOGIA MOLECOLARE (IFOM), priority 2017, dated 2025).
Entries after “also recorded” stand apart in the source; their conditions may differ.

What was measured:
[1] = system: EndMT markers (Klf4, Sca1 and Fsp1); assay: Real time (RT-PCR) analysis of EndMT markers, wild type and CCM3 knock out immortalized lung endothelial cells; type: cell-based, mouse; details: 72 hours
Method: (§1) Cells were seeded 6.3×10^4 cells/cm^2. The day after, PTC209 and UNC1999 were added to the confluent cells. Drugs were left for one or three days depending on the aim of the experiment. Final concentrations used for the two drugs were: 1 uM PTC209 and 5 uM UNC1999.
RNA extraction was performed both with (A) RNeasy kits (Promega) or (B) RNAeasy Mini Kit (QIAGEN). The latter allows also the extraction of proteins from the same sample. The RNA (500 ng) was reverse transcribed with random hexamers (High Capacity cDNA Archive kits; Applied Biosystems) in a final volume of 30 uL. Reaction were made with a thermocycler (Eppendorf) 10 min at 25° C. followed by 2 hours at 37° C. cDNA (5 ng) was amplified in triplicate in a reaction volume of 15 uL using TaqMan Gene Expression Assays (Applied Biosystems) in a ABI/Prism 7900 HT using a pre PCR step of 10 min at 95° C., followed by 40 cycles of 15 seconds at 95° C. and 60 seconds at 60° C. For each sample, the expression level was determined with the comparative threshold cycle (Ct) method, and normalized to the housekeeping genes encoding 18S, glyceraldehyde-3-phosphate dehydrogenase (GAPDH) and hypoxanthine-guanine phosphoribosyltransferase (hprt1). Ct or threshold cycle, represents the PCR cycle at which an increase in reporter fluorescence above a base-line signal can first be detect.
(§2) Wild type and CCM3 knock out cells were treated with either PTC209 or DMSO starting from the day after seeding, when cells were confluent. For this experiment cells were lysed for western blot and real-time analysis after 72 hours of treatment to check a long-term effect of PTC209.
(§3) To perform these experiments, immortalized lung endothelial cells both wild type and CCM3 knock out were treated, with the same experimental strategy used for PTC209, with UNC1999 for 72 hours and subsequently lysed for western blot and real time analysis. UNC1999 was used in its specific optimal concentration, which was different to PTC209. As control DMSO was given to the cells in a volume equal to the volume of DMSO in which UNC1999 was previously dissolved to rich the optimal concentration.
(§4) Briefly, wild type and CCM3 knock out cells were treated with either PTC209, UNC1999 or a combination of the two. PTC209 and UNC1999 were administrated at the same concentration used for the single treatment and DMSO was given as control in a volume equal to the sum of volumes of DMSO in which UNC1999 and PTC209 were previously dissolved.

VE-cadherin = assay: Western blot analysis of VE-cadherin, CCM3 knock out cells; type: cell-based, mouse; details: 72 hours
Method: as §1
Confluent cells were lysed with boiling modified Laemi sample Buffer (2% SDS, 20% glycerol, and 125 mM Tris-HCl, pH 6.8). Lysates were incubated for 10 minutes at 100° C. to allow proteins denaturation. Protein concentration was estimated using the BCA Protein Assay Kit (Pierce). Equal amount of proteins was loaded on a gel, separated by SDS-PAGE and transferred to a Protran Nitrocellulose Membrane (Whatman) 0.2 um pores. The membranes were blocked for 1 hour at RT in Tris Buffered Saline (TBS: NaCl 150 mM, Tris-HCl 10 mM pH 7.4) plus 0.1% Tween-20 containing 5% BSA or milk. […] Membranes were rinsed three times with TBST for 5 minutes each and specific bindings were detected by enhanced chemiluminescence (ECL) system (Amersham Bioscience) using ChemiDoc XRS gel imaging system (Bio-Rad).
Experiment with combined PTC209 and UNC1999 treatments was repeated with the same experimental conditions described before and junction organisation was analysed through VE-cadherin staining and protein expression analysis (FIG. 19).

PRC2 = details: Konze et al., 2013; cited from earlier work
[2] = system: EndMT markers (Klf4, Sca1 and Fsp1); assay: Western blot analysis of EndMT markers, wild type and CCM3 knock out immortalized lung endothelial cells; type: cell-based, mouse; details: 72 hours
Method: as §1
Confluent cells were lysed with boiling modified Laemi sample Buffer (2% SDS, 20% glycerol, and 125 mM Tris-HCl, pH 6.8). Lysates were incubated for 10 minutes at 100° C. to allow proteins denaturation. Protein concentration was estimated using the BCA Protein Assay Kit (Pierce). Equal amount of proteins was loaded on a gel, separated by SDS-PAGE and transferred to a Protran Nitrocellulose Membrane (Whatman) 0.2 um pores. The membranes were blocked for 1 hour at RT in Tris Buffered Saline (TBS: NaCl 150 mM, Tris-HCl 10 mM pH 7.4) plus 0.1% Tween-20 containing 5% BSA or milk. The membranes were incubated with primary antibodies diluted in TBST (TBS plus 0.1% Tween-20) containing 5% of either BSA or milk overnight at 4° C. Next, membranes were rinsed three times with TBST for 5 minutes each and incubated for 45 minutes at RT with HRP-linked secondary antibodies diluted in TBST containing 5% BSA/milk. Membranes were rinsed three times with TBST for 5 minutes each and specific bindings were detected by enhanced chemiluminescence (ECL) system (Amersham Bioscience) using ChemiDoc XRS gel imaging system (Bio-Rad).
as §2, §3, §4

[3] = CCM3 knock out cells, 1 uM PTC209, 5 uM UNC1999, vs DMSO
[4] = wild type cells (physiological condition), CCM3 model

## CCCc1cc(C)[nH]c(=O)c1CNC(=O)c1cc(-c2ccc(N3CCN(C(C)C)CC3)nc2)cc2c1cnn2C(C)C [UNC1999, N-[(6-methyl-2-oxo-4-propyl-1H-pyridin-3-yl)methyl]-1-propan-2-yl-6-[6-(4-propan-2-ylpiperazin-1-yl)pyridin-3-yl]indazole-4-carboxamide]
[1]; [3]
  Klf4, Sca1 and Fsp1 transcripts (real time analysis): downregulation
[1]; [4]
  Klf4 transcript (real time analysis): not influenced
VE-cadherin
  VE-cadherin protein expression level (western blot): did not show any rescue
PRC2
  Hystone-methyl transferase activity of PRC2: blocked
[2]; [3]
  EndMT markers (Klf4, Sca1, Fsp1) protein expression (western blot): downregulation; also recorded: inhibition of the upregulation
[2]; CCM3 knock out cells, 5 uM UNC1999, western blot and real time
  downregulation of EndMT protein and gene expressions compared with PTC209: not as strong as the downregulation observed upon administration of PTC209
[2]; [4]
  Klf4 protein (western blot): not influenced
